For one experiment, the target named is T1, ABI1 with AtPYL1 (Arabidopsis thaliana, UniProt Q8VZS8).
T1 construct: His; made in house
Briefly: PP2C inhibition assay, ABI1 with AtPYL1. The note with it: 1 µM phosphatase:2 µM receptor; read-out: IC50 of ABI1 with AtPYL1. It counts as biochemical. Here is the method:
(§1) His-tagged receptors and phosphatases were purified using nickel–nitrilotriacetic acid (Ni-NTA) affinity chromatography. Protein integrity was analyzed by SDS–polyacrylamide gel electrophoresis, followed by InstantBlue staining. Phosphatase activity was measured using p-Nitrophenyl Phosphate (pNPP) (25 mM) as substrate, 10 mM MnCl2,1 μM PP2C, and 2 μM of the indicated receptors. Proteins were incubated with the ligands for 10 min at room temperature. pNPP was then added to start the reactions, and the absorbance at 405 nm was monitored for 20 min in a ViktorX5 plate reader. Assays were repeated twice. For dose-response experiments, IC50 values were obtained with GraphPad Prism 9 using a nonlinear regression curve fit. Each ligand concentration was tested in triplicate. Phosphatase activity of ABI1 was measured using RRA(phosphoT)VA peptide as a substrate, as described ([27]). […]
(§2) (D) Dose response analysis of iSB09 or ABA-dependent inhibition of ABI1 (blue and black lines, respectively) in presence of either AtPYL1 or AtPYR1. Values (average of duplicates) show PP2C activity after incubation with the indicated concentration of ligand and receptor at 1:2 ratio (1 µM phosphatase:2 µM receptor). […]
(§3) whereas with AtPYR1 was 200 nM and 213 nM, for ABA and iSB09, respectively. Ligands were assayed

The target in a further experiment is T2, ABI1 with AtPYR1 (Arabidopsis thaliana, UniProt O49686).
T2 construct: His; made in house
T2 sequence (O49686 whole entry): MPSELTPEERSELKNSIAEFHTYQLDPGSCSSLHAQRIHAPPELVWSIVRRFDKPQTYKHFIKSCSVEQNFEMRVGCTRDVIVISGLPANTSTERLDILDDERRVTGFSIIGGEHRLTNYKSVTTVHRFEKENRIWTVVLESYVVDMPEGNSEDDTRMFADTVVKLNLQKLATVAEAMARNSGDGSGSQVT
T2 sequence (P49597 whole entry partner): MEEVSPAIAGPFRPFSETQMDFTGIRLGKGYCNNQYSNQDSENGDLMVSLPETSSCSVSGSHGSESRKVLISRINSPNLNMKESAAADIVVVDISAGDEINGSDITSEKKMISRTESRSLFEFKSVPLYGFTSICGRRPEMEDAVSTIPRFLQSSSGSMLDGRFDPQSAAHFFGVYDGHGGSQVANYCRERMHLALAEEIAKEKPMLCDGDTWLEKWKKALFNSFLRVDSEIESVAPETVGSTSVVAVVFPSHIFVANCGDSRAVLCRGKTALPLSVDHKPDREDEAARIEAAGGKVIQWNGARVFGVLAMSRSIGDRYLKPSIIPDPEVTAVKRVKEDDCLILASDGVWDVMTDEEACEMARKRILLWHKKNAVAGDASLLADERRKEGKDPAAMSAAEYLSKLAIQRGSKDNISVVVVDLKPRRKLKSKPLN
Briefly: PP2C inhibition assay, ABI1 with AtPYR1. It is filed as biochemical. The note with it: 1 µM phosphatase:2 µM receptor; read-out: IC50 of ABI1 with AtPYR1. Here is the method: as §1, §2, §3

In the next experiment the target is CsPYL1^5m:ΔNHAB1 (Citrus sinensis, UniProt A0A067E666, F137I/T135L/T153I/V112L/V168A). Put plainly: biochemical. On the procedure:
To obtain the Kd values, the data were analyzed using nonlinear least-squares regression using a model considering a single set of binding sites implemented in Origin 7.0 (OriginLab).

The test system of experiment [1] is Arabidopsis thaliana seeds (WT Col-0, CsPYL1 and CsPYL1^5m lines). Put plainly: Seed germination assay. It counts as in vivo. The note with it: for IC50: Arabidopsis thaliana, read-out: Germination IC50. Here is the method: For seed germination assays, seeds were stratified in the dark at 4°C for 3 days. Approximately 100 seeds of each genotype were sown on MS plates supplemented with six different ligand concentrations. The experiments were repeated three times. To score seed germination, radical emergence was analyzed at 24 hours after sowing.

The target of the next experiment is T3, ΔNHAB1 with AtPYL1 (Arabidopsis thaliana, UniProt Q8VZS8).
T3 construct: His; made in house
T3 sequence (Q8VZS8 whole entry, stated change not applied): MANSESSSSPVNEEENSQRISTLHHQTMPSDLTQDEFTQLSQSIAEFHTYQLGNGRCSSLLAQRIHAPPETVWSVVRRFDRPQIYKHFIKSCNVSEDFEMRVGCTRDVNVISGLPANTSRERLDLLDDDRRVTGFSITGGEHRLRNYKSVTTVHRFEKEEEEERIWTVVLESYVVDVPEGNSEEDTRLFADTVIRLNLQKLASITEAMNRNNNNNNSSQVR
Briefly: PP2C inhibition assay, HAB1 with AtPYL1. It is filed as biochemical. The note with it: read-out: inhibition of HAB1. On the procedure:
(§4) His-tagged receptors and phosphatases were purified using nickel–nitrilotriacetic acid (Ni-NTA) affinity chromatography. Protein integrity was analyzed by SDS–polyacrylamide gel electrophoresis, followed by InstantBlue staining. Phosphatase activity was measured using p-Nitrophenyl Phosphate (pNPP) (25 mM) as substrate, 10 mM MnCl2,1 μM PP2C, and 2 μM of the indicated receptors. Proteins were incubated with the ligands for 10 min at room temperature. pNPP was then added to start the reactions, and the absorbance at 405 nm was monitored for 20 min in a ViktorX5 plate reader. Assays were repeated twice. For dose-response experiments, IC50 values were obtained with GraphPad Prism 9 using a nonlinear regression curve fit. Each ligand concentration was tested in triplicate. Phosphatase activity of ABI1 was measured using RRA(phosphoT)VA peptide as a substrate, as described ([27]).

The test system of experiment [2] is Arabidopsis thaliana plants (WT Col-0, CsPYL1^5m lines). Briefly: Whole-plant gas exchange, stomatal conductance (Gs). It counts as in vivo. On the procedure:
A. thaliana seeds were planted in specific gas exchange pots, where above- and below-ground parts can be separated by glass into 2:1 (v:v) peat:vermiculite mixture. The plants were grown in growth chambers (Snijders Scientific, Drogenbos, Belgium) at 12/12 photoperiod, 23/18°C temperature, 160 μmol m^−2 s^−1 light, and 70% relative humidity and were 23 to 28 days old during gas exchange experiments. Whole-rosette stomatal conductances were recorded with an eight-chamber custom-built temperature-controlled gas exchange device as described before ([72]). Plants were inserted into the measurement cuvettes and allowed to stabilize at standard conditions: ambient CO2, ~420 ppm; air temperature, 24° ± 0.5°C; light, 160 μmol m^−2 s^−1; relative air humidity, 66 ± 3%. For sprayings, plants were removed from gas exchange cuvettes, sprayed with respective solutions, and put back into the cuvettes for stomatal conductance recordings for 56 min. To check the long-term effect of compounds on plants, stomatal conductance measurements were performed about 24 and 48 hours after sprayings. In the meantime, plants were kept in growth chambers as described above. Photographs of plants were taken after the experiment, and leaf rosette area was calculated using ImageJ 1.37v [National Institutes of Health (NIH), USA]. Stomatal conductance for water vapor was calculated with a custom-written program as described ([72]).

The next experiment deals with T4, HAB1 with AtPYL4 (Arabidopsis thaliana, UniProt O80920).
T4 construct: His; made in house
T4 sequence (Q9CAJ0 179-511): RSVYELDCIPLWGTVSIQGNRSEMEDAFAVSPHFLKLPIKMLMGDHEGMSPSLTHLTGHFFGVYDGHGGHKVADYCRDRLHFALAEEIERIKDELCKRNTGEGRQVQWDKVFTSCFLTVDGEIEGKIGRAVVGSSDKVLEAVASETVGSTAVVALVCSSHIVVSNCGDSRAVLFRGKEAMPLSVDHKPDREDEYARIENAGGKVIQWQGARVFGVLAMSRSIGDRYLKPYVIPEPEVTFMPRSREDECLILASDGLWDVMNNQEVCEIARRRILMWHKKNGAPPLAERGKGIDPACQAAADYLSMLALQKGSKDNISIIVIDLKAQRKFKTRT
T4 sequence (O80920 whole entry): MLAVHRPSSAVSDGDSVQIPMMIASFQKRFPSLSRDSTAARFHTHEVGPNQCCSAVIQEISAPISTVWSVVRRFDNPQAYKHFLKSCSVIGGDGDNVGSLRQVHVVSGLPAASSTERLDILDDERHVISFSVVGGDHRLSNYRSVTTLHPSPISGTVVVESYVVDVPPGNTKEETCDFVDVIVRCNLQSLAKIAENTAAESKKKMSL
Briefly: PP2C inhibition assay, HAB1 with AtPYL4. It is filed as biochemical. The note with it: 1 µM phosphatase:2 µM receptor. Here is the method:
as §4
Fig. S6. QB lacks bioactivity in tomato whereas iSB09 is
(A) Quantification of the leaf temperature difference at 2 and 5 days after spraying tomato plants with 0.1 % DMSO
(mock- treated control), 10 µM iSB09 or 10 µM QB.
Asterisk indicates p<0.001 (Student’s t test). Values show individual points and average ± SD (n=4 replicates for mock and chemical treatments). (B) IR-images of representative tomato plants at 2 days after being treated with 0.1 % DMSO […]

The next experiment addresses T5, HAB1 with PYL2 (Arabidopsis thaliana, UniProt O80992).
T5 construct: His; made in house
Put plainly: PP2C inhibition assay, HAB1 with PYL2. The settings on record: 1 μM iSB09, PYL2. It counts as biochemical. On the procedure: as §4

Where two headings read alike, the source gives them in different places. Some results are limits rather than exact numbers.

T1 sequence (Q8VZS8 whole entry): as the sequence (Q8VZS8 whole entry, stated change not applied) above
T1 sequence (P49597 whole entry partner): as the sequence (P49597 whole entry partner) above
Sequence of CsPYL1^5m:ΔNHAB1 (A0A067E666 1-209 V112L/T135L/F137I/T153I/V168A): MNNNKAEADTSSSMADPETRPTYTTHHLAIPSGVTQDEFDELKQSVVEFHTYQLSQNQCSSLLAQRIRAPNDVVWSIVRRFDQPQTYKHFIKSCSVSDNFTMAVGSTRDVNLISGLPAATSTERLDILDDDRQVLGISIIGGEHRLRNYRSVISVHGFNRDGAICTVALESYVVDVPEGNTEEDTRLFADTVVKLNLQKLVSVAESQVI
Sequence of CsPYL1^5m:ΔNHAB1 (Q9CAJ0 179-511 partner): as the sequence (Q9CAJ0 179-511) above
T5 sequence (O80992 whole entry): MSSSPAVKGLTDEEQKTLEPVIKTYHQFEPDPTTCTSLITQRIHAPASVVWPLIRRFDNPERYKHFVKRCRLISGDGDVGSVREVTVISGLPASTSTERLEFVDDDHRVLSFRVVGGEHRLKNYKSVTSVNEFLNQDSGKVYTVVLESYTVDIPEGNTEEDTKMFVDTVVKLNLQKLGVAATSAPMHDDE
T5 sequence (Q9CAJ0 179-511 partner limits assumed): as the sequence (Q9CAJ0 179-511) above

What is called IC50 is the concentration that inhibits the measured activity by half. Broadly, the Kd is the equilibrium constant for the complex coming apart. The inhibition is the change of the read-out against control, counted positive when it falls. With `CCn1c(=O)cc(C)c2cc(CNS(=O)(=O)c3ccccc3)ccc21` [iSB09], the IC50 on ABI1 with AtPYL1 was found to be 226 nM; at ABI1 with AtPYR1, 213 nM; in experiment [1] (WT Col-0), 4390 nM; in experiment [1] (line expressing CsPYL1), 1360 nM; in experiment [1] (line expressing CsPYL1^5m) it was 290 nM; against HAB1 with AtPYL4 it was 330 nM. On CsPYL1^5m:ΔNHAB1, binding was characterised by a dissociation constant (Kd) of 560 nM. Besides, the “inhibition of seed germination, iSB09 relative to iSB07” value in experiment [1] (plants expressing CsPYL1^5m) is recorded as “threefold more effective”. The inhibition at 1 µM at ΔNHAB1 with AtPYL1 and at HAB1 with PYL2 was 60 to 70% each time. Besides, in experiment [2] (WT, spraying with 5 μM), the “effect on stomatal conductance (Gs)” value was “nonsignificant”. For the same molecule, the “reduction of stomatal conductance (Gs)” value in experiment [2] (WT, spraying with 20 μM) is recorded as “effective”. Moreover, the “duration of the effect on Gs” value in experiment [2] (transgenic lines, 5 μM) is not below 48 h. Also, in experiment [2] (transgenic lines, 5 μM), the “reduction of Gs 24 and 48 hours after spraying” value was “significantly evident”.

For the origin of these results see publication PMC10005185, “Structure-guided engineering of a receptor-agonist pair for inducible activation of the ABA adaptive response to drought” (Science Advances, 2023).
